Experimental data from US8551711B2, “Screening method of glutathione-increasing substance” (Teikyo University, priority 2006, dated 2013).

Assays:
GTRAP3-18 protein [1] = assay: Western blot of GTRAP3-18 protein expression in HEK293 cell; format: cell-based; conditions: ratio to actin, oligonucleotide transiently introduced or 250 μM MeβCD, vs control (sense oligonucleotide)
Experimental: (§1) FIG. 1 Results obtained by examining influences of a GTRAP3-18 antisense oligonucleotide and methyl-β-cyclodextrin (MeβCD) against the expression of a GTRAP3-18 protein of an HEK293 cell. A GTRAP3-18 sense oligonucleotide (GTRAP3-18(S)) or an antisense oligonucleotide (GTRAP3-18(As)) was introduced into an HEK293 cell, or 250 μM of methyl-β-cyclodextrin (MeβCD) was made to act thereon. A) After homogenizing the cell, western blot was performed using an anti-EAAC1 antibody, an anti-GTRAP3-18 antibody and an anti-actin antibody. B) The results of the western blot were digitalized and indicated in terms of a ratio to actin. GTRAP3-18 decreased by the introduction of the GTRAP3-18 antisense oligonucleotide, and GTRAP3-18 increased by MeβCD.
(§2) By transiently introducing an antisense oligonucleotide of GTRAP3-18 into an HEK293 cell, the amount of GTRAP3-18 in the cell was decreased (FIG. 1). Next, the amount of intracellular glutathione was assayed by ThioGlo-1 (manufactured by Calbiochem). […] of the amount of GTRAP3-18 was confirmed by a western blot method. A cell into which a sense oligonucleotide had been introduced was used as a control group.
On the other hand, it was confirmed by a western blot method that when methyl-β-cyclodextrin (MeβCD) was added to HEK293 cell, the amount of GTRAP3-18 increased as compared with the control group (FIG. 1).

EAAC1 = assay: Western blot of EAAC1 amount in HEK293 cell; format: cell-based; conditions: ratio to actin, oligonucleotide introduced or 250 μM MeβCD
Experimental: as §1

[2] = tested on: intracellular glutathione (GSH); assay: Amount of intracellular glutathione in HEK293 cell assayed by ThioGlo-1; format: cell-based; conditions: conditions of FIG. 1, vs control group
Experimental: FIG. 2 The amount of intracellular glutathione (GSH) was quantitatively determined under the conditions of FIG. 1. Glutathione increased by the introduction of the GTRAP3-18 antisense oligonucleotide, and glutathione decreased by MeβCD.
as §2

GTRAP3-18 protein [3] = assay: Western blot of GTRAP3-18 protein in mouse hippocampus after intraventricular administration; format: in vivo; conditions: administered in cerebral ventricle (siRNA 10 μg/h, after one week), vs control (buffer)
Experimental: (§3) FIG. 3 Results obtained by examining influences of GTRAP3-18 siRNA against the expression of a GTRAP3-18 protein of a mouse hippocampus cell. A) After homogenizing the cell, western blot was performed using an anti-GTRAP3-18 antibody. B) The results of the western blot were digitalized and indicated in terms of a ratio to the buffer administration. The amount of GTRAP3-18 decreased by the introduction of GTRAP3-18 siRNA.
(§4) FIG. 6 Results obtained by examining influences of methyl-β-cyclodextrin (MeβCD) against the expression of a GTRAP3-18 protein of mouse hippocampus. A) After homogenizing the cell, western blot was performed using an anti-EAAC1 antibody, an anti-GTRAP3-18 antibody and an anti-actin antibody. B) The results of the western blot were digitalized and indicated in terms of a ratio to actin. GTRAP3-18 increased by MeβCD.
(§5) siRNA against GTRAP3-18 was administered (10 μg/h) in a cerebral ventricle of a mouse.
On the other hand, when methyl-β-cyclodextrin (MeβCD) was administered in a cerebral ventricle of a mouse, the amount of GTRAP3-18 in the hippocampus cell increased as compared with the control group (FIG. 6).

EAAC1 protein = assay: Western blot of EAAC1 protein in mouse hippocampus after intraventricular administration; format: in vivo; conditions: administered in cerebral ventricle, vs control (buffer)
Experimental: as §3, with “4” for “3”, “EAAC1” for “GTRAP3-18”, “an EAAC1” for “a GTRAP3-18”, “anti-EAAC1” for “anti-GTRAP3-18”
as §4, §5

[4] = tested on: glutathione in hippocampus; assay: Amount of glutathione in mouse hippocampus (GSH reductase/DTNB, absorbance at 412 nm); format: in vivo; conditions: administered in cerebral ventricle, corrected by tissue weight, vs control
Excerpt: FIG. 5 Results obtained by quantitatively determining the amount of glutathione in hippocampus under the conditions of FIGS. 3 and 4. The amount of glutathione of hippocampus decreased by the intraventricular administration of EAAC1 siRNA, whereas the amount of glutathione increased by GTRAP3-18 siRNA.
FIG. 7 The amount of intracellular glutathione (GSH) was quantitatively determined under the conditions of FIG. 6. Glutathione decreased by MeβCD.
Next, after decreasing the amount of GTRAP3-18 or EAAC1 in the hippocampus cell, the amount of glutathione was assayed. That is, an extract from the hippocampus tissue was mixed with a reaction solution containing EDTA (ethylenediaminetetraacetic acid), GSH reductase, DTNB (5,5′-ditiobis-nitrobenzoic acid) and NADPH, and an absorbance at 412 nm was measured. After determining a concentration by using an absorbance of a GSH standard solution, it was corrected by a tissue weight.

[5] = listed as methyl-β-cyclodextrin (MeβCD)

## methyl-β-cyclodextrin [MeβCD]
GTRAP3-18 protein [1]
  amount of GTRAP3-18 in the cell: increased
EAAC1
  amount of EAAC1: did not change
[2]
  amount of intracellular glutathione (GSH): decreased
[2]; [5]
  amount of intracellular glutathione (GSH): significantly decreased
GTRAP3-18 protein [3]
  amount of GTRAP3-18 in hippocampus cell: increased
EAAC1 protein
  amount of EAAC1 in hippocampus cell: did not change
[4]
  amount of glutathione in hippocampus: decreased
[4]; [5]
  amount of glutathione in hippocampus: significantly decreased
